Results as given in PMC8773338, “Discovery Potent of Thiazolidinedione Derivatives as Antioxidant, α-Amylase Inhibitor, and Antidiabetic Agent” (Biomedicines, 2021).
Converted amounts (≈) assume the structure as drawn.

What was measured:
[1] = target: T1, α-amylase (Homo sapiens, UniProt P04746); experiment: in vitro inhibition of α-amylase assay; assay type: biochemical; conditions: six concentrations 5-40 µg/mL, non-linear regression
T1 sequence (P04746 16-511): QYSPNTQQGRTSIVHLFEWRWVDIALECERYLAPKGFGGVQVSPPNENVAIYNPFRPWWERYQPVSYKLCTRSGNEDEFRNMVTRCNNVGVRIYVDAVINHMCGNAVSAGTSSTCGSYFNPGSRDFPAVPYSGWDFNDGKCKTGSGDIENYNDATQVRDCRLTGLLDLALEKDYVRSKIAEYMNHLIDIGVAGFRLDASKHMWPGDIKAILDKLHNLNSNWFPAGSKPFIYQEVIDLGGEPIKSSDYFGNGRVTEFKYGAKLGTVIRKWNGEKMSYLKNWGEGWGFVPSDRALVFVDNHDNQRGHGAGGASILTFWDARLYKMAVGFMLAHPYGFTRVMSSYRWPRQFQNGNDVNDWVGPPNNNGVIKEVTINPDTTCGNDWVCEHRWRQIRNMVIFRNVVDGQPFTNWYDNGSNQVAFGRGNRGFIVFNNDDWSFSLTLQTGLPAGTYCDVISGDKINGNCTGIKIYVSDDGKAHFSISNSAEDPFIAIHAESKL
Description: The α-amylase activity of the probe compounds determined using a method.
This study examined the inhibitory potential for the (3–6, 9, and 11) compounds against α-amylase enzyme. We applied six different concentrations (5,10,15,20,30, and 40) µg/mL for this test. These concentrations were plotted via the inhibition percentage to determine the IC50 (the concentration required to inhibit 50% of the enzyme) using the non-linear regression method.
- inhibition in-vitro of α-Amylase assay:
The α-amylase activity of the compounds were determined using a method in which 250 μL of each compound, or Metformin .HCl, dissolved in ethanol to obtain different concentrations (5, 10, 15, 20,30 and 40 μg/mL ), was mixed with 500 μL of α-amylase (2 U/mL ) in phosphate buffer (100 mM, pH 6.8) and incubated at 37 °C for 10 min. Thereafter, 50 μL of 1% starch, dissolved in the same buffer, was added to the mixture and the samples were incubated again at 37 °C. After 30 min, dinitrosalicylic acid (DNS) colour reagent (1 mL) was added. The (DNS) was prepared by adding 437mg of 3,5- dinitro salicylic acid in 20 mL distilled water to12 g of sodium potassium tartrate in 8 mL of 2 M NaOH, then added distilled water until the solution reach to 40 mL ). the samples were boiled for 10 min in water bath. For non-enzymatic reactions, the assays were performed with a blank containing all of the components except the enzyme. Each concentration was analyzed in three independent experiments run in triplicate.
The percent of inhibition Absorbance was then measured at 540 nm. The percent of inhibition of α-amylase was calculated as following by the formula below:
%inhibition= ((absorbance of blank_absorbance of compound)/absorbance of blank) *100. […]

[2] = system: alloxan-induced diabetic rat model; experiment: blood glucose level in alloxan-induced diabetic rat model; assay type: in vivo; conditions: for reduction percentage of blood glucose level: 30-day treatment protocol, compared with the normal control
Protocol: Healthy male albino Wistar rats (150 ± 20 g) have been obtained as mentioned in Supplementary Materials.
The animals were kept fasting overnight (12 h) before induction of diabetes, which was induced in rats as reported and mentioned in Supplementary Materials.
We obtained the blood samples from the tail vein of all rats, the blood-glucose-level “BGLs” were measured and monitored in all treatment groups at days 0 (basal), 2th, 4th, 15th, and 30th as reported.
This study used an alloxan-induced diabetic rat model to test the anti-hyperglycemic action of substances (3–6, 9, 11). […] The BGL was monitored for each tested compound at three different doses (50, 100, and 250 μ/Kg) and for five experimental period durations (0, 2, 4, 15, 30 days). […]
The animals were kept fasting overnight (12 h) before induction of diabetes. […]
(§1) Data are expressed as mean ± S.E. Data analysis was done using one way analysis of variance (ANOVA) followed by least significant difference (LSD) test for multiple comparisons. Difference was considered significant when p is less than 0.05. SPSS (version 11) program was used to carry out these statistical tests.

[3] = system: alloxan-induced diabetic rat model; conditions: Wistar (albino), in vivo, 30 days
Description: This study used an alloxan-induced diabetic rat model to test the anti-hyperglycemic action of substances (3–6, 9, 11). […] The BGL was monitored for each tested compound at three different doses (50, 100, and 250 μ/Kg) and for five experimental period durations (0, 2, 4, 15, 30 days).
At 50 μ/Kg, we observed no mortality during any of the experiment periods for all tested compounds.
Data analyzed by one way ANOVA followed by LSD test and expressed as mean ± SEM from five observations. TEXT PRINTED IN THE PICTURE: 3: Mortilaty: 20% (250 (m/Kg)); Mortilaty: 10% (100 (m/Kg)); Mortilaty: 0% (50 (m/Kg)) | 4: Mortilaty: 20% (250 (m/Kg)); Mortilaty: 10% (100 (m/Kg)); Mortilaty: 0% (50 (m/Kg)) | 5: Mortilaty: 30% (250 (m/Kg)); Mortilaty: 20% (100 (m/Kg)); Mortilaty: 0% (50 (m/Kg)) | 6: Mortilaty: 20% (250 (m/Kg)); Mortilaty: 10% (100 (m/Kg)); Mortilaty: 0% (50 (m/Kg)) | 9: Mortilaty: 20% (250 (m/Kg)); Mortilaty: 10% (100 (m/Kg)); Mortilaty: 0% (50 (m/Kg)) | 11: Mortilaty: 20% (250 (m/Kg)); Mortilaty: 10% (100 (m/Kg)); Mortilaty: 0% (50 (m/Kg)) DOUBTS OF THE COPYIST ABOUT THIS PICTURE: The control groups NO. (labels 0%, 0%, 0%, overlapping) and DC (labels 50%, 50% and a third that reads 50% or 60%, partly hidden) are not compounds and were left out. / 3, 4, 5, 6, 9, 11, Mortilaty at 50 (m/Kg): the 0% labels are partly overlapped by neighbouring bars and labels; 0% is the best reading. / Which label belongs to which dose series was judged from its position over the bars; several labels overlap.

[4] = DPPH radical scavenging activity; conditions: concentrations 0.16-1000 µg/mL
Protocol: The assay of 2,2-Diphenyl-1-picrylhydrazyl radical (DPPH) was performed according to the method at.
We examined the antioxidant activity of the (3–6, 9, and 11) hybrids using the stable DPPH assay. The antioxidant result was represented as IC50 (the concentration is essential for 50% reduction in the power of H-donation or radical scavenging). […] The increasing scavenging activity may be due to the stabilization of the lone pair in the conjugated system through the presence of the terminal carbonyl and thiazolidinone groups.

[5] = system: alloxan-induced diabetic rat model; experiment: serum lipid profile in alloxan-induced diabetic rats; assay type: in vivo; conditions: for CH level: versus normal animals; for serum CH level decrease: compared to the diabetic control group; for LDL value: versus normal value
Protocol: The blood samples (0.5 mL) were withdrawn from the retro-orbital plexus of each rat and the other steps adapted for measuring the biochemical analysis are shown in (Supplementary Materials).
A serious side effect related to diabetes is Hyperlipidemia. Insulin deficiency promotes the adipocytes to generate a fatty acid, hepatic phospholipids and cholesterol. Thus, we measured the levels of (cholesterol “CH”, triglyceride “TG”, high, low and very-low- and high/low and very low density lipoproteins “HDL, LDL and VLDL”) in serum for alloxan-loaded diabetes. […] The serum CH. Level decreased by 40%, 32%, 40%, 48%, 52%, and 43% for 3–6, 9, and 11, respectively, compared to the diabetic control group (Figure 7).
Figure 7 The level of Ch (cholesterol), TG (triglyceride), HDL (high density lipoprotein), LDL (low density lipoprotein) and VLDL (very low density lipoprotein) in serum of hyperglycemic loaded rats. […] Data analyzed by one way ANOVA followed by LSD test and expressed as mean ± SEM from five observations.
2007) dissolved in normal saline (Bodade et al., 2013). The animals were allowed to drink 5% glucose solution overnight to overcome the drug induced hypoglycemia (Gandhi and Sasikumar, 2012; Pareek etal., 2009). Blood samples were taken 48 h after injection of alloxan to ensure that diabetes has been induced (Vijayan et al., 2013), and fasting plasma glucose level of rats was determined using glucose strips. Rats with plasma glucose concentration N 300 mg/dl (Gadadare et al., 2015) were considered diabetic and included in […]
The blood samples (0.5 ml) were withdrawn from the retro-orbital plexus of each rat under mild anesthesia using a glass capillary tube after fasting for 6 h. Blood samples were centrifuged at 3000 rpm for 15 min. The serum was kept at −80 °C until analyzed. Speciﬁc reagent kits were used to determine levels of serum triglyceride (TG), serum cholesterol (CH), serum low density lipoproteins (LDL), serum high density lipoproteins (HDL) for assessing the lipid proﬁle.
as §1

[6] = 100 μ/Kg, in comparison with DC, 4th and 15th time durations
[7] = 250 μ/Kg, 30th time duration of treatment
[8] = 250 μ/Kg, 15th and 30th treatments

Structure (SMILES) | IC50 [1] [µM] | reduction percentage of blood glucose level [2] [%] | BGL ([2]; 50 μ/Kg, 4th, 15th and 30th) | BGL [2, 6] | glucose level [2, 7] | Mortilaty [3] [%] | IC50 DPPH radical scavenging [4] [µg/mL] | VLDL level ([5]; 4th, 15th and 30th days) | CH level ([5]; 30th day, 50 μ/Kg) | TG level ([5]; 30th day, versus normal level, 50 μ/Kg) | serum CH level decrease ([5]; 50 μ/Kg) [%] | LDL value ([5]; 2nd and 15th days) | VLDL ([5]; 2nd to 15th days) | VLDL level ([5]; 30th day) | LDL value ([5]; 30th day) | BGL [2, 8] | BGL ([2]; 50 μ/Kg, p < 0.05, all experiment periods compared to DC group) | glucose level ([2]; 100 μ/Kg, in comparison with DC, 4th, 15th and 30th time durations) | VLDL ([5]; 4th and 30th day) | VLDL level of serum ([5]; all experimental periods, compared to the normal rats)
O=C(O)CN1C(=O)SC(=Cc2ccc3c(c2)OCO3)C1=O [Compound 6, 2-(5-(benzo[d][1,3]dioxol-5-ylmethylene)-2,4-dioxothiazolidin-3-yl)acetic acid] | 33.4 | 69.55 | moderate reduction in BGL | moderate decreases in BGL | significant reduction in glucose level | 0 | 10.78 (≈ 35.1 µM) | regulated the VLDL level to the normal level | lower CH level than the normal animals | decreased to the normal level | 48 | – | – | – | – | – | – | – | – | –
O=C1NC(=O)/C(=C\c2ccc3c(c2)OCO3)S1 [Compound 3] | 173 | – | – | – | – | 0 | – | – | lower CH level than the normal animals | – | 40 | can regulate the LDL value to the normal value | failed to reach to control value for VLDL | almost reached to the normal VLDL level | failed to do so | – | – | – | – | –
CC(=O)CN1C(=O)SC(=Cc2ccc3c(c2)OCO3)C1=O [Compound 5, 5-(benzo[d][1,3]dioxol-5-ylmethylene)-3-(2-oxopropyl) thiazolidine-2,4-dione] | 59 | – | – | – | – | 0 | – | regulated the VLDL level to the normal level | lower CH level than the normal animals | – | 40 | – | – | – | – | promising decreases in BGL | – | – | – | –
Cc1nnc(NC(=S)SCC(=O)N2C(=O)S/C(=C/c3ccc4c(c3)OCO4)C2=O)s1 [Compound 9, 2-(5-(Benzo[d][1,3]dioxol-5-ylmethylene)-2,4-dioxothiazolidin-3-yl)-2-oxoethyl (5-Methyl-1,3,4-thiadiazol-2-yl) Carbamodithioate] | – | – | moderate reduction in BGL | moderate decreases in BGL | – | – | – | regulated the VLDL level to the normal level | lower CH level than the normal animals | – | 52 | – | – | – | – | – | – | – | – | –
O=C1CSC(=O)N1CC(=O)N1C(=O)SC(=Cc2ccc3c(c2)OCO3)C1=O [Compound 11, 5-(Benzo[d][1,3]dioxol-5-ylmethylene)-3-(2-(2,4-dioxothiazolidin-3-yl)acetyl) Thiazolidine-2,4-dione] | 49.2 | 66.95 | – | – | significant reduction in glucose level | – | 11.16 (≈ 27.5 µM) | – | lower CH level than the normal animals | – | 43 | – | – | – | – | promising decreases in BGL | promising reduction in BGL | significant reduction in glucose level | regulated only the VLDL of infected rats to normal values | –
O=C(CCl)N1C(=O)S/C(=C/c2ccc3c(c2)OCO3)C1=O [Compound 4] | 163 | – | moderate reduction in BGL | moderate decreases in BGL | – | 0 | – | – | – | – | 32 | – | – | – | – | – | – | – | – | below the normal value
